Reference: PubChem BioAssay (NCI)
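Interpolation was linear, between the two tested concentrations surrounding the appropriate level; five concentrations were tested over 48 hours in 96-well plates. The concentration for 50% growth inhibition is given as GI50. TGI is the concentration that stops growth completely.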

Assays:
Assay in all cases: DTP human tumour cell line panel, 48 h
[1] = system: HCT-15 colon
[2] = system: UO-31 renal
[3] = system: OVCAR-4 ovarian
[4] = system: SK-OV-3 ovarian
[5] = system: HL-60(TB) leukemia
[6] = system: HS 578T breast
[7] = system: MDA-MB-231 breast
[8] = system: IGROV1 ovarian
[9] = system: M14 melanoma
[10] = system: NCI/ADR-RES ovarian

Structure (SMILES) | TGI [1] [µM] | TGI [2] [µM] | TGI [3] [µM] | TGI [4] [µM] | TGI [5] [µM] | TGI [6] [µM] | TGI [7] [µM] | TGI [8] [µM] | TGI [9] [µM] | TGI [10] [µM] | GI50 [1] [µM] | GI50 [2] [µM] | GI50 [3] [µM] | GI50 [4] [µM] | GI50 [5] [µM] | GI50 [6] [µM] | GI50 [7] [µM] | GI50 [8] [µM] | GI50 [9] [µM] | GI50 [10] [µM]
O=C1CSC(c2cccs2)N1c1nc2cc3sc(N4C(=O)CSC4c4cccs4)nc3cc2s1 (centres undefined) | > 50 | > 50 | > 50 | > 50 | > 50 | > 50 | > 50 | > 50 | > 50 | > 50 |  |  |  |  |  |  |  |  |  | 
CCOC(=O)C(NC(=O)CC(C)C)(N1CCN(c2cc3c(cc2F)c(=O)c(C(=O)O)cn3C2CC2)CC1)C(F)(F)F (centres undefined) | 22.3 | 49.6 | 68 | 65.8 | 26 | 57.8 | 46.1 | 37.6 | 47.5 | 52.2 |  |  |  |  |  |  |  |  |  | 
CCOc1cc(-c2nc3ccccn3c2/N=C/c2cc(Br)ccc2O)ccc1O | > 100 | 84.6 | 38.7 | 92.7 | > 100 | > 100 | > 100 | 49.1 | > 100 | 93 |  |  |  |  |  |  |  |  |  | 
Brc1ccc2c(-c3csc(-c4c[nH]c5ccc(Br)cc45)n3)c[nH]c2c1 | 14.5 | 14.4 | 23.9 | 24.2 | 19.7 | > 51.3 | > 24.6 | 16.4 | 13.3 | 21.2 |  |  |  |  |  |  |  |  |  | 
O=C(Cc1ccc([N+](=O)[O-])cc1)OCC#CCOC(=O)Cc1ccc([N+](=O)[O-])cc1 | > 10 | > 10 | > 10 | > 10 | > 10 | > 10 | > 10 | > 10 | > 10 | > 10 |  |  |  |  |  |  |  |  |  | 
COc1cc(I)c2c3c1OC1C34CCN(C)C(C2)C4=CC(I)C1(OC)OC (centres undefined) | 63.4 | 34.7 | 55.9 | 68 | 47.3 | > 100 | 46.3 | 54.3 | > 100 | 68 |  |  |  |  |  |  |  |  |  | 
FC(F)(F)c1ccc2nc3n(c2c1)C(c1c(Cl)cccc1Cl)SC3 (centres undefined) | 29.6 | 26.8 | 30.5 | 27.9 | 33.2 | 68.9 | 37.7 | 24.1 | 30.7 | 25.7 |  |  |  |  |  |  |  |  |  | 
Brc1cccc(N=NN2CCCC2)c1 | > 100 | > 100 | > 100 | > 100 | > 100 | > 100 | > 100 | > 100 | > 100 | > 100 |  |  |  |  |  |  |  |  |  | 
OC1(c2ccc(Cl)cc2)c2ccc3ccccc3c2C2=N[C@H]3CCCC[C@@H]3N21 (some centres undefined) | 28.3 | > 100 | > 100 | 65.3 | > 100 | 3.94 | > 100 | > 100 | 23 | 5.99 |  |  |  |  |  |  |  |  |  | 
c1ccc2c3c(c(N4CCOCC4)nc2c1)CCCC3 | > 100 | > 100 | > 100 | > 100 | 69.3 | > 100 | > 100 | > 100 | > 100 | > 100 |  |  |  |  |  |  |  |  |  | 
CC(C)(C)c1cc(/C=C(\C#N)C(=O)NCCO)cc(C(C)(C)C)c1O | 58.6 | 49.7 | 76.5 | 60.2 | 36.9 | > 100 | 43.9 | > 100 | 31.8 | 75.3 |  |  |  |  |  |  |  |  |  | 
COCc1nc2c(OC)cc(-c3nc4ccc(N5CCN(C)CC5)cc4[nH]3)c(OC)c2[nH]1 | > 100 | > 100 | > 100 | > 100 | > 100 | > 100 | > 100 | > 100 | 31.9 | > 100 |  |  |  |  |  |  |  |  |  | 
Brc1cc2nn(-c3ccccc3)nc2c2nonc12 | > 100 | > 100 | > 100 | > 100 | > 100 | > 100 | > 100 | > 100 | > 100 | > 100 |  |  |  |  |  |  |  |  |  | 
NC(N)=NS(=O)(=O)c1ccc(NC(=O)c2ccc3nc4ccccc4c(Nc4ccc(S(=O)(=O)N=C(N)N)cc4)c3c2)cc1 | > 100 | > 100 | > 100 | > 100 | > 100 | > 100 | > 100 | > 100 | > 100 | > 100 |  |  |  |  |  |  |  |  |  | 
COc1cc(CN2CCCCC2)cc2cc(C(=O)O)c(=O)oc12 | > 100 | > 100 | > 100 | > 100 | > 100 | > 100 | > 100 | > 100 | > 100 | > 100 |  |  |  |  |  |  |  |  |  | 
CC1(C(=O)O)CCCC1C(=O)O (centres undefined) | > 100 | > 100 | > 100 |  | > 100 | > 100 | > 100 | > 100 | > 100 | > 100 |  |  |  |  |  |  |  |  |  | 
O=C1C=C(c2ccccc2)O/C1=C/C(=O)c1ccc(Cl)cc1 | 39.5 | 38.9 | 32.9 | > 100 | 5.38 | 55.5 | 31.2 | 35.9 | 40.3 | 50 |  |  |  |  |  |  |  |  |  | 

Structure (SMILES) | TGI [1] [µM] | TGI [2] [µM] | TGI [3] [µM] | TGI [4] [µM] | TGI [5] [µM] | TGI [6] [µM] | TGI [7] [µM] | TGI [8] [µM] | TGI [9] [µM] | TGI [10] [µM] | GI50 [1] [µM] | GI50 [2] [µM] | GI50 [3] [µM] | GI50 [4] [µM] | GI50 [5] [µM] | GI50 [6] [µM] | GI50 [7] [µM] | GI50 [8] [µM] | GI50 [9] [µM] | GI50 [10] [µM]
O=c1c2ccccc2nc(Nc2cccc(Cl)c2)n1/N=C/C=C/c1ccccc1 | > 100 | > 100 | > 100 | > 100 | > 100 | > 100 | > 100 | > 100 | > 100 | > 100 |  |  |  |  |  |  |  |  |  | 
CC1(C)C=C(S(=O)(=O)c2ccccc2)Oc2ccccc2O1 | > 100 | 86.2 | > 100 | > 100 | 46.2 | > 100 | > 100 | > 100 | > 100 | > 100 |  |  |  |  |  |  |  |  |  | 
Nc1ccc(S(=O)(=O)Nc2nc3ccccc3nc2N2CCCCC2)cc1 | > 100 | 55.1 | 87.7 | > 100 | > 100 | > 100 | > 100 | > 100 | > 100 | > 100 |  |  |  |  |  |  |  |  |  | 
Cn1c([O-])nc(-n2cc[n+](C)c2)cc1=O | > 100 | > 100 | > 100 | > 100 | > 100 | > 100 | > 100 | > 100 | > 100 | > 100 |  |  |  |  |  |  |  |  |  | 
CC1(CNCc2ccccc2)CC(CCc2ccccc2)N(C(=O)c2ccc([N+](=O)[O-])cc2)C1Cc1ccc(O)cc1 (centres undefined) | 26.3 | 23.3 | 28.2 | 34.6 | 54.4 | 46.8 | 24.4 | 31.2 | 28 | 36 |  |  |  |  |  |  |  |  |  | 
CC(=S)N=Cc1c(O)cc(C)oc1=O | > 100 | > 100 | > 100 | > 100 | > 100 | > 100 | > 100 | > 100 | > 100 | > 100 |  |  |  |  |  |  |  |  |  | 
O=c1oc2cc(O)ccc2c(O)c1C(c1ccc(C(c2c(O)c3ccc(O)cc3oc2=O)c2c(O)c3ccc(O)cc3oc2=O)cc1)c1c(O)c2ccc(O)cc2oc1=O | > 100 | > 100 | > 100 | > 100 | > 100 | > 100 | > 100 | > 100 | > 100 | > 100 |  |  |  |  |  |  |  |  |  | 
Cc1nc(C)c(Cc2ccccc2)o1 | > 100 | > 100 | > 100 | > 100 | > 100 | > 100 | > 100 | > 100 | > 100 | > 100 |  |  |  |  |  |  |  |  |  | 
C=c1c(OC)c(OC)c(O)c2c1=c1cc([N+](=O)[O-])cc(OC)c1=N2 | > 100 | > 100 | > 100 | > 100 | > 100 | > 100 | > 100 | > 100 | > 100 | > 100 |  |  |  |  |  |  |  |  |  | 
CCC(C)C(=O)OC1CC2(C)C(c3ccoc3)OC(=O)CC23OC2(C)OC34C(OC(=O)C(C)C)C3(O)C(OC(=O)C5(C)OC5C)C5(C)CC3(O)C(C)(C5CC(=O)OC)C14O2 (centres undefined) | > 100 | > 100 | > 100 | > 100 | 38.9 | > 100 | > 100 | > 100 | > 100 | > 100 |  |  |  |  |  |  |  |  |  | 
COc1ccc2cc(NC(=O)N/N=C\c3ccc(Cl)cc3)ccc2c1 | > 100 | > 100 | > 100 | > 100 | > 100 | 68.8 | > 100 | > 100 | > 100 | > 100 |  |  |  |  |  |  |  |  |  | 
O=C(Nc1ccccc1C(=O)NCCCO)/C(=C/c1ccccc1O)NC(=O)c1ccccc1 | > 100 | > 31.6 | > 100 | > 100 | > 100 | 77.6 | > 59.3 | > 100 | > 100 | 69.1 |  |  |  |  |  |  |  |  |  | 
N#Cc1c(-c2ccc(F)cc2)nc(N/N=C/c2c[nH]c3ccccc23)nc1N1CCOCC1 | 4.56 | 55.2 | 62.8 | 38.9 | 7.57 | 32.5 | 56.4 | 79.7 | 4.87 | > 100 | 0.784 | 1.76 | 16.1 | 8.61 | 0.563 | 3.62 | 5.16 | 12.8 | 2.1 | 13.2
Brc1ccc2c(-c3csc(-c4c[nH]c5cc(Br)ccc45)n3)c[nH]c2c1 | > 89.9 | > 100 | 97.7 | 97.4 | > 100 | 87.1 | > 70.6 | > 75.2 | > 56.5 | > 87 |  |  |  |  |  |  |  |  |  | 
COCC1OC(N2C(=O)NC(=O)[C@@H]3C=C4CCCCC4=C[C@@H]32)C(OC)C1OC (some centres undefined) | > 100 | > 100 | > 100 | > 100 | > 100 | > 100 | > 100 | > 100 | > 100 | > 100 |  |  |  |  |  |  |  |  |  | 
CN(C)S(=O)(=O)Nc1nnc(S(N)(=O)=O)s1 | > 100 | > 100 | > 100 | > 100 | > 100 | > 100 | > 100 | > 100 | > 100 | > 100 |  |  |  |  |  |  |  |  |  | 
CCN1CCC(O)(C(C(=O)O)c2ccccc2)CC1 (centres undefined) | > 100 | > 100 | > 100 | > 100 | > 100 | > 100 | > 100 | > 100 | > 100 | > 100 |  |  |  |  |  |  |  |  |  | 
